According to patent publication US12077503B2, “Substituted cyclic amides and their use as herbicides” (FMC CORPORATION, priority 2015, dated 2024):

Key:
Assay type in all cases: in vivo
[1] = system: ragweed (common ragweed, Ambrosia elatior); assay: Test A postemergence; details: postemergence; for Ragweed plant response rating: 125 g ai/ha, visual injury rating on 0 to 100 scale (0 no effect, 100 complete control), approx. 10 d; for Plant response rating, Ragweed: 500 g ai/ha, 0 to 100 scale, 0 no effect, 100 complete control
Summary of the method: (§1)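 Ratings of 0 (no effect) to 100 (complete control) come from visual comparison with untreated controls roughly 10 d after treatment. Test chemicals, formulated in a non-phytotoxic solvent mixture with surfactant, were applied either as a preemergence directed soil spray on seeded soil or postemergence to one- to two-leaf plants 2 to 10 cm tall.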

[2] = system: Galium (catchweed bedstraw, Galium aparine); assay: Test A postemergence; details: postemergence; for Galium plant response rating: 125 g ai/ha, visual injury rating on 0 to 100 scale (0 no effect, 100 complete control), approx. 10 d; for Plant response rating, Galium: 500 g ai/ha, 0 to 100 scale, 0 no effect, 100 complete control
Summary of the method: as §1

[3] = system: barnyardgrass (Echinochloa crus-galli); assay: Test A postemergence; details: postemergence; for Barnyardgrass plant response rating: 125 g ai/ha, visual injury rating on 0 to 100 scale (0 no effect, 100 complete control), approx. 10 d; for Plant response rating, Barnyardgrass: 500 g ai/ha, 0 to 100 scale, 0 no effect, 100 complete control
Summary of the method: as §1

[4] = system: blackgrass (Alopecurus myosuroides); assay: Test A postemergence; details: postemergence; for Blackgrass plant response rating: 125 g ai/ha, visual injury rating on 0 to 100 scale (0 no effect, 100 complete control), approx. 10 d; for Plant response rating, Blackgrass: 500 g ai/ha, 0 to 100 scale, 0 no effect, 100 complete control
Summary of the method: as §1

[5] = system: wheat (Triticum aestivum); assay: Test A postemergence; details: postemergence; for Wheat plant response rating: 125 g ai/ha, visual injury rating on 0 to 100 scale (0 no effect, 100 complete control), approx. 10 d; for Plant response rating, Wheat: 500 g ai/ha, 0 to 100 scale, 0 no effect, 100 complete control
Summary of the method: as §1

Kochia (Kochia scoparia) [6] = assay: Test A postemergence; details: postemergence; for Kochia plant response rating: 125 g ai/ha, visual injury rating on 0 to 100 scale (0 no effect, 100 complete control), approx. 10 d; for Plant response rating, Kochia: 500 g ai/ha, 0 to 100 scale, 0 no effect, 100 complete control
Summary of the method: as §1

[7] = system: ryegrass, Italian (Italian ryegrass, Lolium multiflorum); assay: Test A postemergence; details: postemergence; for Ryegrass, Italian plant response rating: 125 g ai/ha, visual injury rating on 0 to 100 scale (0 no effect, 100 complete control), approx. 10 d; for Plant response rating, Ryegrass, Italian: 500 g ai/ha, 0 to 100 scale, 0 no effect, 100 complete control
Summary of the method: as §1

[8] = system: giant foxtail (Setaria faberii); assay: Test A postemergence; details: postemergence; for Foxtail, Giant plant response rating: 125 g ai/ha, visual injury rating on 0 to 100 scale (0 no effect, 100 complete control), approx. 10 d; for Plant response rating, Foxtail, Giant: 500 g ai/ha, 0 to 100 scale, 0 no effect, 100 complete control
Summary of the method: as §1

[9] = system: pigweed (Amaranthus retroflexus); assay: Test A postemergence; details: postemergence; for Pigweed plant response rating: 125 g ai/ha, visual injury rating on 0 to 100 scale (0 no effect, 100 complete control), approx. 10 d; for Plant response rating, Pigweed: 500 g ai/ha, 0 to 100 scale, 0 no effect, 100 complete control
Summary of the method: as §1

corn (Zea mays) = assay: Test A postemergence; details: postemergence; for Corn plant response rating: 125 g ai/ha, visual injury rating on 0 to 100 scale (0 no effect, 100 complete control), approx. 10 d; for Plant response rating, Corn: 500 g ai/ha, 0 to 100 scale, 0 no effect, 100 complete control
Summary of the method: as §1

[10] = system: ragweed (common ragweed, Ambrosia elatior); assay: Test A preemergence; details: for Plant response rating, Ragweed: 125 g ai/ha, preemergence, 0 to 100 scale (0 no effect, 100 complete control); for Ragweed plant response rating (0 to 100 scale, 0 is no effect, 100 is complete control): Preemergence, 500 g ai/ha, visual injury approx. 10 d
Summary of the method: as §1

[11] = system: barnyardgrass (Echinochloa crus-galli); assay: Test A preemergence; details: for Plant response rating, Barnyardgrass: 125 g ai/ha, preemergence, 0 to 100 scale (0 no effect, 100 complete control); for Barnyardgrass plant response rating (0 to 100 scale, 0 is no effect, 100 is complete control): Preemergence, 500 g ai/ha, visual injury approx. 10 d
Summary of the method: as §1

Kochia (Kochia scoparia) [12] = assay: Test A preemergence; details: for Plant response rating, Kochia: 125 g ai/ha, preemergence, 0 to 100 scale (0 no effect, 100 complete control); for Kochia plant response rating (0 to 100 scale, 0 is no effect, 100 is complete control): Preemergence, 500 g ai/ha, visual injury approx. 10 d
Summary of the method: as §1

[13] = system: ryegrass, Italian (Italian ryegrass, Lolium multiflorum); assay: Test A preemergence; details: for Plant response rating, Ryegrass, Italian: 125 g ai/ha, preemergence, 0 to 100 scale (0 no effect, 100 complete control); for Ryegrass, Italian plant response rating (0 to 100 scale, 0 is no effect, 100 is complete control): Preemergence, 500 g ai/ha, visual injury approx. 10 d
Summary of the method: as §1

[14] = system: giant foxtail (Setaria faberii); assay: Test A preemergence; details: for Plant response rating, Foxtail, Giant: 125 g ai/ha, preemergence, 0 to 100 scale (0 no effect, 100 complete control); for Foxtail, Giant plant response rating (0 to 100 scale, 0 is no effect, 100 is complete control): Preemergence, 500 g ai/ha, visual injury approx. 10 d
Summary of the method: as §1

[15] = system: pigweed (Amaranthus retroflexus); assay: Test A preemergence; details: for Plant response rating, Pigweed: 125 g ai/ha, preemergence, 0 to 100 scale (0 no effect, 100 complete control); for Pigweed plant response rating (0 to 100 scale, 0 is no effect, 100 is complete control): Preemergence, 500 g ai/ha, visual injury approx. 10 d
[16] = system: barnyardgrass (Echinochloa crus-galli); assay: Test B flooded paddy test; details: Flood, 500 g ai/ha; 0 to 100 scale where 0 is no effect and 100 is complete control; 13 to 15 d
Summary of the method: (§2)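 Visual ratings (0 none to 100 complete control) are relative to untreated plants, taken 13–15 d after treatment in a greenhouse. Test material went straight into floodwater standing 3 cm above the soil, kept constant, on plants at the 2-leaf stage.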

rice (Oryra sativa) = assay: Test B flooded paddy test; details: Flood, 500 g ai/ha; 0 to 100 scale where 0 is no effect and 100 is complete control; 13 to 15 d
Summary of the method: as §2

[17] = system: sedge, umbrella (small-flower umbrella sedge, Cyperus difformis); assay: Test B flooded paddy test; details: Flood, 500 g ai/ha; 0 to 100 scale where 0 is no effect and 100 is complete control; 13 to 15 d
Summary of the method: as §2

[18] = system: ducksalad (Heteranthera limosa); assay: Test B flooded paddy test; details: Flood, 500 g ai/ha; 0 to 100 scale where 0 is no effect and 100 is complete control; 13 to 15 d
Summary of the method: as §2

Structure (SMILES) | Ragweed plant response rating [1] | Plant response rating, Ragweed [1] | Galium plant response rating [2] | Plant response rating, Galium [2] | Barnyardgrass plant response rating [3] | Plant response rating, Barnyardgrass [3] | Blackgrass plant response rating [4] | Plant response rating, Blackgrass [4] | Wheat plant response rating [5] | Plant response rating, Wheat [5] | Kochia plant response rating (Kochia (Kochia scoparia) [6]) | Plant response rating, Kochia (Kochia (Kochia scoparia) [6]) | Ryegrass, Italian plant response rating [7] | Plant response rating, Ryegrass, Italian [7] | Foxtail, Giant plant response rating [8] | Plant response rating, Foxtail, Giant [8] | Pigweed plant response rating [9] | Plant response rating, Pigweed [9] | Corn plant response rating (corn (Zea mays)) | Plant response rating, Corn (corn (Zea mays)) | further results
COc1cccc(NC(=O)C2C(=O)NCC2c2ccc(F)c(F)c2)c1F (stereo not drawn) [Compound 416] | 0 | 0 | 0 | 0 | 0 | 0 | 0 | 0 | 0 | 0 | 0 | 0 | 0 | 0 | 0 | 0 | 0 | 0 | 0 | 0 | Plant response rating, Ragweed [10]: 0; Ragweed plant response rating (0 to 100 scale, 0 is no effect, 100 is complete control) [10]: 0; Plant response rating, Barnyardgrass [11]: 0; Barnyardgrass plant response rating (0 to 100 scale, 0 is no effect, 100 is complete control) [11]: 0; Plant response rating, Kochia (Kochia (Kochia scoparia) [12]): 0; Kochia plant response rating (0 to 100 scale, 0 is no effect, 100 is complete control) (Kochia (Kochia scoparia) [12]): 0; Plant response rating, Ryegrass, Italian [13]: 0; Ryegrass, Italian plant response rating (0 to 100 scale, 0 is no effect, 100 is complete control) [13]: 0; Plant response rating, Foxtail, Giant [14]: 0; Foxtail, Giant plant response rating (0 to 100 scale, 0 is no effect, 100 is complete control) [14]: 50; Plant response rating, Pigweed [15]: 0; Pigweed plant response rating (0 to 100 scale, 0 is no effect, 100 is complete control) [15]: 0; Plant response rating, Barnyardgrass [16]: 0; Plant response rating, Rice (rice (Oryra sativa)): 15; Plant response rating, Sedge, Umbrella [17]: 0; Plant response rating, Ducksalad [18]: 50
O=C1NCC(c2cccc(OC(F)F)c2)C1C(=O)Nc1cccc(OC(F)F)c1 (stereo not drawn) [Compound 422] | 0 | 0 | 30 | 70 | 50 | 60 | 30 | 50 | 0 | 0 | 50 | 60 | 0 | 0 | 50 | 60 | 40 | 60 | 0 | 0 | Plant response rating, Ragweed [10]: 0; Ragweed plant response rating (0 to 100 scale, 0 is no effect, 100 is complete control) [10]: 0; Plant response rating, Barnyardgrass [11]: 40; Barnyardgrass plant response rating (0 to 100 scale, 0 is no effect, 100 is complete control) [11]: 70; Plant response rating, Kochia (Kochia (Kochia scoparia) [12]): 0; Kochia plant response rating (0 to 100 scale, 0 is no effect, 100 is complete control) (Kochia (Kochia scoparia) [12]): 0; Plant response rating, Ryegrass, Italian [13]: 0; Ryegrass, Italian plant response rating (0 to 100 scale, 0 is no effect, 100 is complete control) [13]: 0; Plant response rating, Foxtail, Giant [14]: 60; Foxtail, Giant plant response rating (0 to 100 scale, 0 is no effect, 100 is complete control) [14]: 70; Plant response rating, Pigweed [15]: 20; Pigweed plant response rating (0 to 100 scale, 0 is no effect, 100 is complete control) [15]: 30; Plant response rating, Barnyardgrass [16]: 0; Plant response rating, Rice (rice (Oryra sativa)): 0; Plant response rating, Sedge, Umbrella [17]: 0; Plant response rating, Ducksalad [18]: 50
COc1cccc(NC(=O)C2C(=O)NCC2c2cccc(OC(F)F)c2)c1F (stereo not drawn) [Compound 426] | 0 | 0 | 0 | 0 | 30 | 70 | 0 | 0 | 0 | 0 | 0 | 0 | 0 | 0 | 20 | 60 | 0 | 0 | 0 | 0 | Plant response rating, Ragweed [10]: 0; Ragweed plant response rating (0 to 100 scale, 0 is no effect, 100 is complete control) [10]: 0; Plant response rating, Barnyardgrass [11]: 50; Barnyardgrass plant response rating (0 to 100 scale, 0 is no effect, 100 is complete control) [11]: 80; Plant response rating, Kochia (Kochia (Kochia scoparia) [12]): 0; Kochia plant response rating (0 to 100 scale, 0 is no effect, 100 is complete control) (Kochia (Kochia scoparia) [12]): 0; Plant response rating, Ryegrass, Italian [13]: 0; Ryegrass, Italian plant response rating (0 to 100 scale, 0 is no effect, 100 is complete control) [13]: 0; Plant response rating, Foxtail, Giant [14]: 80; Foxtail, Giant plant response rating (0 to 100 scale, 0 is no effect, 100 is complete control) [14]: 90; Plant response rating, Pigweed [15]: 0; Pigweed plant response rating (0 to 100 scale, 0 is no effect, 100 is complete control) [15]: 30; Plant response rating, Barnyardgrass [16]: 0; Plant response rating, Rice (rice (Oryra sativa)): 0; Plant response rating, Sedge, Umbrella [17]: 0; Plant response rating, Ducksalad [18]: 40
